Reference: the supplement of paper PMC5908809

Legend:
[1] = system: normal NK cells expanded with K562-aAPC; assay: percent inhibition of viability; higher = more inhibition; conditions: 72 h, IL-2 2.5 ng/mL
Description: (§1)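 Drug sensitivity and resistance testing on K562-aAPC-expanded normal NK cells: 5 concentrations (10-fold steps over a 10,000-fold range), 72 h at 37 °C, viability by CellTiter-Glo normalised to DMSO and benzethonium chloride controls; DSS from the fitted curve.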

NK-92 (IL-2 2.5 ng/mL) [2] = assay: drug sensitivity score (DSS) (DSS units); higher = more sensitive; extreme values may be limits of the assay; conditions: 72 h
KAI3 (IL-2 2.5 ng/mL) [3] = assay: as above; conditions: 72 h
[4] = system: normal primary NK cells, pool 1 (3 donors), resting (IL-2 0 ng/mL); assay: as above; conditions: 72 h
SNK-6 (IL-2 2.5 ng/mL) [5] = assay: as above; conditions: 72 h
NKL (IL-2 2.5 ng/mL) [6] = assay: as above; conditions: 72 h
YT (IL-2 2.5 ng/mL) [7] = assay: as above; conditions: 72 h
DERL-7 (IL-2 2.5 ng/mL) [8] = assay: as above; conditions: 72 h
KHYG-1 (IL-2 2.5 ng/mL) [9] = assay: as above; conditions: 72 h
[10] = system: normal primary NK cells, pool 3 (3 donors) (IL-2 2.5 ng/mL); assay: as above; conditions: 72 h
IMC-1 (IL-2 20 ng/mL) [11] = assay: as above; conditions: 72 h
[12] = system: normal primary NK cells, pool 1 (3 donors) (IL-2 2.5 ng/mL); assay: as above; conditions: 72 h
NK-YS (IL-2 2.5 ng/mL) [13] = assay: as above; conditions: 72 h
[14] = system: normal primary NK cells, pool 2 (3 donors) (IL-2 2.5 ng/mL); assay: as above; conditions: 72 h
[15] = system: normal NK cells expanded with K562-aAPC; assay: as above; conditions: 72 h; IL-2 2.5 ng/mL
Description: as §1

NK-92 (IL-2 2.5 ng/mL) [16] = assay: percent inhibition of viability; higher = more inhibition; conditions: 72 h
KAI3 (IL-2 2.5 ng/mL) [17] = assay: as above; conditions: 72 h
[18] = system: normal primary NK cells, pool 1 (3 donors), resting (IL-2 0 ng/mL); assay: as above; conditions: 72 h
SNK-6 (IL-2 2.5 ng/mL) [19] = assay: as above; conditions: 72 h
NKL (IL-2 2.5 ng/mL) [20] = assay: as above; conditions: 72 h
YT (IL-2 2.5 ng/mL) [21] = assay: as above; conditions: 72 h
DERL-7 (IL-2 2.5 ng/mL) [22] = assay: as above; conditions: 72 h
KHYG-1 (IL-2 2.5 ng/mL) [23] = assay: as above; conditions: 72 h
[24] = system: normal primary NK cells, pool 3 (3 donors) (IL-2 2.5 ng/mL); assay: as above; conditions: 72 h
IMC-1 (IL-2 20 ng/mL) [25] = assay: as above; conditions: 72 h
[26] = system: normal primary NK cells, pool 1 (3 donors) (IL-2 2.5 ng/mL); assay: as above; conditions: 72 h
NK-YS (IL-2 2.5 ng/mL) [27] = assay: as above; conditions: 72 h
[28] = system: normal primary NK cells, pool 2 (3 donors) (IL-2 2.5 ng/mL); assay: as above; conditions: 72 h

Cc1ccc(C(=O)Nc2ccc(CN3CCN(C)CC3)c(C(F)(F)F)c2)cc1C#Cc1cnc2cccnn12 [Ponatinib] (max concentration tested 1000 nM)
percent inhibition of viability [%]
Conditions | 0.1 nM | 1 nM | 10 nM | 100 nM | 1000 nM
DERL-7 (IL-2 2.5 ng/mL) [22] | 6.88 | 2.27 | -1.37 | 18.4 | 74.2
IMC-1 (IL-2 20 ng/mL) [25] | -6.8 | -0.24 | -8.73 | -1.9 | -20.2
KAI3 (IL-2 2.5 ng/mL) [17] | -7.8 | -3.54 | 0.07 | 10.6 | 83.4
KHYG-1 (IL-2 2.5 ng/mL) [23] | -7.12 | -3.44 | -4.86 | 3.85 | 65.1
NK-92 (IL-2 2.5 ng/mL) [16] | -13.8 | -10.1 | -23.1 | -19.9 | 55
NK-YS (IL-2 2.5 ng/mL) [27] | -8.44 | -4.74 | -4.88 | 8.88 | 33.5
NKL (IL-2 2.5 ng/mL) [20] | -13.5 | -11.6 | 1.83 | 36.3 | 70.1
SNK-6 (IL-2 2.5 ng/mL) [19] | 11.2 | 4.03 | -7.68 | -18.6 | -2.96
YT (IL-2 2.5 ng/mL) [21] | -6.26 | -2.49 | 1.52 | 27 | 68.5
[1] | -4.16 | -2.02 | 24.4 | -11.2 | 70.4
[18] | 1.74 | 25.3 | 15.3 | 19.4 | 60
[24] | -2.51 | 2.42 | 9.55 | -20 | 65
[26] | 2.63 | 6.68 | 12.1 | 7.51 | 81.5
[28] | 2.87 | -1.56 | 1.5 | -2.42 | 75

Conditions | drug sensitivity score
DERL-7 (IL-2 2.5 ng/mL) [8] | 6.96
IMC-1 (IL-2 20 ng/mL) [11] | 0
KAI3 (IL-2 2.5 ng/mL) [3] | 6.4
KHYG-1 (IL-2 2.5 ng/mL) [9] | 4.12
NK-92 (IL-2 2.5 ng/mL) [2] | 2.11
NK-YS (IL-2 2.5 ng/mL) [13] | 2.89
NKL (IL-2 2.5 ng/mL) [6] | 8.25
SNK-6 (IL-2 2.5 ng/mL) [5] | 0
YT (IL-2 2.5 ng/mL) [7] | 7.33
[4] | 8.02
[10] | 2.66
[12] | 5.73
[14] | 3.94
[15] | 3.2

Nc1nc(Cl)nc2c1ncn2[C@@H]1O[C@H](CO)[C@@H](O)[C@@H]1F [Clofarabine] (max concentration tested 10000 nM)
percent inhibition of viability [%]
Conditions | 1 nM | 10 nM | 100 nM | 1000 nM | 10000 nM
DERL-7 (IL-2 2.5 ng/mL) [22] | -6.34 | 12.4 | 98.8 | 100 | 100
IMC-1 (IL-2 20 ng/mL) [25] | -5.2 | -10.7 | 83.5 | 99.8 | 100
KAI3 (IL-2 2.5 ng/mL) [17] | -5.93 | 2 | 84.8 | 100 | 103
KHYG-1 (IL-2 2.5 ng/mL) [23] | -5.63 | -3.93 | 98.4 | 101 | 102
NK-92 (IL-2 2.5 ng/mL) [16] | -17 | 2.38 | 98.2 | 101 | 104
NK-YS (IL-2 2.5 ng/mL) [27] | -2.94 | -3.43 | 73.3 | 96.5 | 100
NKL (IL-2 2.5 ng/mL) [20] | -14.3 | -3.55 | 97.4 | 102 | 105
SNK-6 (IL-2 2.5 ng/mL) [19] | -9.36 | -23.6 | 95 | 96.3 | 98.6
YT (IL-2 2.5 ng/mL) [21] | -2.64 | -4.64 | 17.5 | 78.8 | 85.4
[1] | -7.69 | 10 | 99.8 | 100 | 101
[18] | -1.53 | 61.1 | 92.3 | 90.6 | 93.4
[24] | -5.8 | 12.6 | 91 | 98.5 | 99.3
[26] | 1.34 | 32.7 | 95.2 | 96.8 | 97.6
[28] | 1.6 | 18 | 90.5 | 95 | 96.2

Conditions | drug sensitivity score
DERL-7 (IL-2 2.5 ng/mL) [8] | 32.5
IMC-1 (IL-2 20 ng/mL) [11] | 27.6
KAI3 (IL-2 2.5 ng/mL) [3] | 28
KHYG-1 (IL-2 2.5 ng/mL) [9] | 29.9
NK-92 (IL-2 2.5 ng/mL) [2] | 30.5
NK-YS (IL-2 2.5 ng/mL) [13] | 26.4
NKL (IL-2 2.5 ng/mL) [6] | 29.8
SNK-6 (IL-2 2.5 ng/mL) [5] | 28.5
YT (IL-2 2.5 ng/mL) [7] | 16.8
[4] | 35.8
[10] | 30.7
[12] | 33.7
[14] | 31
[15] | 32.1
